Measured values reported in patent US20260098017A1, “NOVEL AROMATIC RING DERIVATIVE CONTAINING AMIDE SUBSTITUTION AND USE THEREOF” (TIANJIN PHARMACEUTICAL BIOTECHNOLOGY CO., LTD., priority 2022, published 2026).
Marks after values point to notes of the source that are not given here.

Experiments:
[1] = molecular target: Ba/F3 cell line expressing TYK2 (Homo sapiens, UniProt P29597, cells depend on it, form not given); assay: In vitro cellular inhibition assay (Ba/F3 cell proliferation, CellTiter-Glo); assay type: cell-based; details: read-out: IC50 (the source's name)
Method in brief: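 Ba/F3 cells dependent on TYK2 were exposed to serially diluted compound, then viability was read by CellTiter-Glo luminescence. Inhibition (%) was calculated from RLU relative to max and min controls, and IC50 was obtained by curve fitting.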

JAK3 JH1 kinase = JAK3 JH1 kinase (Homo sapiens, UniProt P52333); assay: JAK3 JH1 enzyme assay in vitro (TR-FRET); assay type: biochemical; details: TR-FRET; read-out: JAK 3 JH1 IC50
JAK3 JH1 kinase, sequence (P52333 822-1111 limits assumed): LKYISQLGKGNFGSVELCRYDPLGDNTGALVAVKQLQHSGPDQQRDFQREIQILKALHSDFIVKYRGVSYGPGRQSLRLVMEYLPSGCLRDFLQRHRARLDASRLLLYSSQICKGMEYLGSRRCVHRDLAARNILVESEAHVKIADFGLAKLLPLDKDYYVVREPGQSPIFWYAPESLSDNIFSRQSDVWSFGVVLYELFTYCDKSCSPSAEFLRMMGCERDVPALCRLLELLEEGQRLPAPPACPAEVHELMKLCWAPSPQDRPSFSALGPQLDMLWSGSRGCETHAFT

[2] = system: imiquimod-induced mouse psoriasis-like model; assay: Imiquimod-induced mouse psoriasis-like model (PASI score); assay type: in vivo
From the text: The efficacy of the compounds according to the present invention in an imiquimod-induced mouse psoriasis-like model could be assessed using the following method:
Sample preparation: with reference to the preparation of commercially available Benvitimod cream. The compound (the compound of Example 3), the oil phase (hexadecanol, vaseline, liquid paraffin, and glyceryl mono- and distearate), the aqueous phase (propylene glycol, Tween 80, and water), and the appropriate additive (ethylparaben) were mixed, and subjected to vacuum emulsification to prepare a 1% cream sample.
A test site on the back of the animal was shaved to expose an area measuring of 2×3 cm^2. Imiquimod ointment was continuously applied to the back skin of the mice for 6 days to establish a mouse psoriasis model. From day 1 to day 6, various groups of animals were administered respectively according to the experimental protocol.
At day 7, the severity of skin inflammation was assessed and scored using a 5-point scale (0-4) (PASI score):
Skin thickness: 0: the skin was smooth without wrinkles; 1: the skin at the edge of the drug application area had slight wrinkles; 2: the skin in the drug application area all had slight wrinkles; 3: the degree of wrinkles in the drug application area was further deepened; and 4: on the basis of the score of 3, the mouse had the conditions of weight loss or poor state and the like. […]

[3] = system: mouse asthma model induced by OVA; assay: Mouse asthma model induced by OVA: inflammatory cells in bronchoalveolar lavage fluid; assay type: in vivo
Description: The efficacy of the compounds according to the present invention in a mouse asthma model induced by OVA could be assessed using the following method:
Test sample: the compound of Example 3 was weighed accurately, and dissolved in DMSO to prepare a solution at a concentration of 2 mg/mL.
30 female BALB/c mice were adaptively fed. After one week, 10 mice were randomly taken out and fed as a blank control group, and 20 mice were selected to establish the asthma model. The model mice were intraperitoneally injected with 0.2 mL of sensitizing solution for sensitization respectively on 0, 7 and 14 days. The sensitization solution contained 50 μg of OVA and 2 mg of Al(OH)3. The blank control group received an equivalent volume of physiological saline.
From day 21 to day 23 after sensitization, the mice in the model group and the administration group were subjected to nebulization stimulation with 5% OVA for 30 min, and the mice in the blank control group received nebulization with physiological saline for the same duration.
30 min before daily stimulation of the mice, 50 μl of physiological saline was administered endotracheally to mice in the blank control and model groups, and 50 μl of the corresponding drug was administered endotracheally to mice in the Example 3 compound group, once daily for 3 consecutive days.
After the airway hyperresponsiveness measurement, the mice were euthanized by cervical dislocation and fixed on a dissecting tray. The abdomens and thoracic cavities of the mice were opened, and the neck skin and excess tissues were excised to expose the mouse trachea. A small incision was made on the transverse axis of the trachea with small scissors, a pre-prepared 1 mL syringe needle was inserted therein, and the needle was fixed with surgical thread. 0.5 mL of pre-cooled phosphate-buffer solution (PBS) was aspirated with a 1 ml syringe and slowly injected into the lungs of the mice, followed by slow withdrawal. Each mouse was lavaged once, and a total of about 0.4 mL of lavage fluid was collected. The number of inflammatory cells in the bronchoalveolar lavage fluid was measured by a cell counter.
Statistical analysis was conducted using SPSS software, Measurement data were expressed as mean±standard deviation. One Way ANOVA was used for inter-group comparisons, LSD test was used for those with homogeneous variance, and Dunnett-t test was used for those with heterogeneous variance. Differences were statistically significant with P<0.05.

[4] = 2 mg/mL, 50 μL endotracheally, once daily for 3 days

[2H]C([2H])([2H])NC(=O)c1nnc(NC(=O)C2CC2)cc1Nc1cccc(C(=O)Nc2cccc(C)c2)c1OC [Example 3]
GI50 [1]: 1 to 5 nM | IC50 (JAK3 JH1 kinase): > 10000 nM | Percentage reduction in PASI score % ([2]; day 7, 1% cream, 100 mg, topical, qd, day 1 to 6): 40.7*** % | Improvement of psoriasis symptoms ([2]; topical cream, compared with the model group): effectively improved psoriasis symptoms | Number of inflammatory cells: Leukocyte [3, 4]: 1,241.7 ± 618.1 ×10^3 | Number of inflammatory cells: Lymphocyte [3, 4]: 791.7 ± 524.9 ×10^3 | Number of inflammatory cells: Monocyte [3, 4]: 58.3 ± 37.0 ×10^3 | Number of inflammatory cells: Neutrophil [3, 4]: 391.7 ± 206.3 ×10^3 | Effect on number of inflammatory cells (white blood cells, lymphocytes) compared with the model group ([3]; pre-administration before stimulation): significantly reduce the number of inflammatory cells
